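Briefly, cells in 96-well plates were exposed to five compound concentrations for 48 h, and endpoints were estimated by linear interpolation. TGI is the concentration that stops growth completely.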
Assays:
Assay in all cases: NCI tumour cell line growth inhibition, 48 h
[1] = test system: CAKI-1 renal
[2] = test system: HOP-62 NSCLC
[3] = test system: M19-MEL melanoma
[4] = test system: MALME-3M melanoma
[5] = test system: NCI-H226 lung
[6] = test system: SF-295 CNS
[7] = test system: SNB-78 CNS
[8] = test system: UACC-257 melanoma
[9] = test system: UACC-62 melanoma
[10] = test system: SK-MEL-28 melanoma

Row | Compound | TGI [1] [µM] | TGI [2] [µM] | TGI [3] [µM] | TGI [4] [µM] | TGI [5] [µM] | TGI [6] [µM] | TGI [7] [µM] | TGI [8] [µM] | TGI [9] [µM] | TGI [10] [µM]
1 | Fc1ccc(F)c(C2SCc3nc4ccccc4n32)c1 (stereo not given) | > 100 | > 100 | > 100 | > 100 | > 100 | > 100 | > 100 | > 100 | > 100 | 
2 | C[C@H]1COC2(c3ccccc3)CCC(=O)N12 (stereo not given in full) | > 100 | > 100 | > 100 | > 100 |  | > 100 | > 100 | > 100 | > 100 | > 100
3 | COc1ccc(/C(Cl)=C(\C=O)c2ccc(OC)c(OC)c2)cc1OC | > 100 | > 100 | > 100 | > 100 | 99.9 | 48.2 | > 100 | > 66.3 | > 100 | > 100
4 | CS(=O)(=O)OCCN(CCOS(C)(=O)=O)c1ccc(C=Nc2ccc3oc(=O)ccc3c2)cc1 | 9.11 | 34.1 | 39 | 23.8 | 21.9 | 42.2 | 12.5 | 26.9 | 19.8 | 64.4
5 | CC1=Nc2c([nH]c(=S)[nH]c2=O)NC(c2ccc(Cl)c(Cl)c2)C1 (stereo not given) | > 100 | > 100 | 34.2 | > 100 | 48.8 | 46.3 | > 100 | 47 | > 63.7 | 36.7
6 | COc1ccc(CCNCc2cccc(OC)c2OC)cc1OC | > 100 | > 100 | > 100 | > 100 |  | > 100 | > 100 | > 100 | > 100 | > 100
7 | CN(/N=C/c1ccnc2ccccc12)c1ccc([N+](=O)[O-])cc1[N+](=O)[O-] | > 100 | 89.1 | > 100 | > 100 | > 100 | > 100 | > 100 | > 100 | > 100 | > 100
8 | COc1ccc(/C(Cl)=C(\C=O)c2ccc(Br)cc2)cc1OC | > 100 | > 100 | > 100 | > 100 | > 100 | 67.9 | > 100 | > 100 | > 100 | > 100
9 | O=C(/C=C/c1c(O)ccc2ccccc12)c1cccc2ccccc12 | > 100 | > 100 | 71.9 | > 100 | > 100 | > 100 | > 100 | > 100 | > 100 | > 100
10 | CCc1ccccc1-n1c2nc(=O)n(C)c(=O)c-2nc2ccccc21 | 49.3 | > 100 | 3.69 | 18.2 | 36.4 | 24 | 38.5 | 18.6 | 5.15 | 
11 | Cc1c(C2Cc3ccccc3N2C(=O)/C=C\C(=O)O)c2ccccc2n1C (stereo not given) | 78.7 | 57.1 | 52.3 | > 100 | 57.6 | 50.4 | > 100 | 36.3 | 35.8 | 
12 | C=C1CC2(OC1=O)c1ccccc1C=Cc1ccccc12 | 6.08 | 24.9 | 11.8 | 9.71 | 11.2 | 32.1 | 9.3 | 10.2 | 9.96 | 9.32
13 | CCOC(=O)CC1=NC(=Nc2cc(Cl)ccc2Cl)SC1 | > 100 | > 100 | > 100 | > 100 | > 100 | > 100 | > 100 | > 100 | > 100 | > 100
14 | NS(=O)(=O)c1ccc(NC(=O)CC(=O)Nc2ccc(S(N)(=O)=O)cc2)cc1 | > 100 | > 100 | > 100 | > 100 | > 100 | > 100 | > 100 | > 100 | > 100 | > 100
15 | O=C(CCC(=O)N/N=C/c1ccccc1O)N/N=C/c1ccccc1O | > 100 |  | > 100 | > 100 | > 100 | > 100 | > 100 | > 100 | > 100 | > 100
16 | CC(=O)NCCCCCCNC(C)=O | > 10000 | > 10000 | > 10000 | 7700 | > 10000 | > 10000 | > 10000 | > 10000 | 9870 | > 10000
17 | CCc1ccc(/C(C)=N/NC(N)=S)cc1 | > 100 | > 100 | > 100 | > 100 |  | > 100 | > 100 |  | > 100 | > 100
18 | OCC(O)COc1c(Cl)ccc(Cl)c1Cl (stereo not given) | > 100 | > 100 | > 100 | > 100 | > 100 | > 100 | > 100 | > 100 | > 100 | > 100
19 | O=C(N/C(=C\c1ccc(Br)cc1)c1nc2ccccc2s1)c1ccccc1 | > 100 |  | > 100 | > 100 | > 100 |  | > 100 | > 100 | > 100 | > 100
20 | Cc1[nH]c(=O)nc(CC(O)(c2ccccc2)c2ccccc2)c1-c1ccccc1 | > 100 | > 100 | > 100 | > 100 | > 100 | > 100 | > 100 | > 100 | > 100 | > 100
21 | CC(=O)OCC(OC(C)=O)C(OC(C)=O)C(OC(C)=O)C(=O)CNn1c(-c2ccccc2)nc2ccc(Br)cc2c1=O (stereo not given) | > 100 | > 100 | > 100 | > 100 | > 100 | > 100 | > 100 | > 100 | > 100 | > 100
